We go through 26 compounds from patent publication US20150045551A1, “FUSED AZOLE DERIVATIVE” (TAISHO PHARMACEUTICAL CO., LTD, priority 2012, published 2015).

A word on the IC50: it is the concentration that gives 50% inhibition.

Counter-ions that a name gives are not always drawn.

For this assay, the target named is T1, Human V1b receptor (Homo sapiens, UniProt P47901).
T1 sequence (P47901 1-424): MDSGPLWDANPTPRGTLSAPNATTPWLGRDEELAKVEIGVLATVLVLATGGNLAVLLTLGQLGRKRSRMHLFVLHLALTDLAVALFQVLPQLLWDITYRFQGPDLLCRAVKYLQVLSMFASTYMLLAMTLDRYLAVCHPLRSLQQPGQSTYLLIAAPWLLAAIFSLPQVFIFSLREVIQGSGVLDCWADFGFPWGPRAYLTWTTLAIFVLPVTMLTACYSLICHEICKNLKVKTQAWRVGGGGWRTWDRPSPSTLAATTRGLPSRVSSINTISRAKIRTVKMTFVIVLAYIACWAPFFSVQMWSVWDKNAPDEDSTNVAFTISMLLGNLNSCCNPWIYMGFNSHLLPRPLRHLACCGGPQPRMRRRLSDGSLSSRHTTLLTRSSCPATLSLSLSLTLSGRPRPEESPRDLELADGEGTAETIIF
Description: Binding test for V1b receptor ([3H]AVP displacement, crude membrane preparation). The settings on record: [3H]AVP 0.4 to 1 nmol/L; membranes of 293FT cells transiently expressing human V1b receptor; room temperature, 60 minutes. Set-up: expressed in transfected cells; host or cells: 293FT cells (transient expression). The protocol:
Human V1b receptor was transiently expressed in 293FT cells, which were then recovered and homogenated in a 15 mmol/L tris-hydrochloric acid buffer (pH 7.4 and containing 2 mmol/L magnesium chloride, 0.3 mmol/L ethylenediaminetetracetic acid, and 1 mmol/L glycol ether diaminetetraacetic acid). The resulting homogenate was centrifuged at 50,000×g at 4 ° C. for 20 minutes. The precipitate was resuspended in a 75 mmol/L tris-hydrochloric acid buffer (pH 7.4 and containing 12.5 mmol/L magnesium chloride, 0.3 mmol/L ethylenediaminetetracetic acid, 1 mmol/L glycol ether diaminetetraacetic acid, and 250 mmol/L sucrose) to give a crude membrane preparation, which was stored at −80° C. until the binding test was initiated. In the binding test, the crude membrane preparation was diluted with a 50 mmol/L tris-hydrochloric acid buffer (pH 7.4 and containing 10 mmol/L magnesium chloride and 0.1% bovine serum albumin) and mixed with each test compound and [^3H]AVP (final concentration: 0.4 to 1 nmol/L), followed by incubation at room temperature for 60 minutes. The test compound was serially diluted with DMSO so that it would have final concentrations of 0.01 nmol/L to […] at the time of mixing. After the incubation, the mixture was suction filtered through a GF/C filter that was preliminarily impregnated with 0.3% polyethyleneimine. The GF/C filter was dried and after adding a scintillator, the residual radioactivity on the filter was measured using TopCount (PerkinElmer Inc.). The radioactivity in the presence of unlabeled AVP at 10 μmol/L was defined as 0%, and the radioactivity in the absence of unlabeled AVP was defined as 100%. A dose-response curve was plotted from radioactivities in the presence of a test compound at various concentrations, and the 50% inhibitory concentration (IC50 value) of the test compound was calculated.
For `CC(C)NC(=O)Cn1c(-c2cccc(Cl)c2)nc2cc(OCCCN3CCOCC3)ccc21` [Example A-2, 2-{2-(3-chlorophenyl)-5-[3-(morpholin-4-yl)propoxy]-1H-benzimidazol-1-yl}-N-isopropyl acetamide], the IC50 amounted to 14.1 nM.
To `CC(C)NC(=O)Cn1c(-c2cccc(Cl)c2)nc2cc(OCCCN3CC4(COC4)C3)ccc21` [Example A-3, 2-{2-(3-chlorophenyl)-5-[3-(2-oxa-6-azaspiro[3.3]hept-6-yl)propoxy]-1H-benzimidazol-1-yl}-N-isopropyl acetamide] belongs 8.3 nM.
Turning to `CC(C)NC(=O)Cn1c(-c2cccc(Cl)c2)nc2cc(OCCCN3[C@@H]4CC[C@H]3COC4)ccc21` [Example A-4, 2-[2-(3-chlorophenyl)-5-{3-[(1R,5S)-3-oxa-8-azabicyclo[3.2.1]oct-8-yl]propoxy}-1H-benzimidazol-1-yl]-N-isopropyl acetamide], the IC50 was determined as 5 nM.
The value for `COc1cc(-c2nc3cc(OCCCN4CC5(COC5)C4)ccc3n2CC(=O)NC(C)C)ccc1F` [Example A-7, 2-{2-(4-fluoro-3-methoxyphenyl)-5-[3-(2-oxa-6-azaspiro[3.3]hept-6-yl)propoxy]-1H-benzimidazol-1-yl}-N-isopropyl acetamide] was 4.8 nM; that for `COc1cc(-c2nc3cc(OCCCN4[C@@H]5CC[C@H]4COC5)ccc3n2CC(=O)NC(C)C)ccc1F` [Example A-8, 2-[2-(4-fluoro-3-methoxyphenyl)-5-{3-[(1R,5S)-3-oxa-8-azabicyclo[3.2.1]oct-8-yl]propoxy}-1H-benzimidazol-1-yl]-N-isopropyl acetamide] was 2.5 nM.
`COc1cc(-c2nc3ccc(-c4cc(Cl)cc(CN(C)C)c4)cc3n2CC(=O)NC(C)C)ccc1F` [Example A-10, 2-[6-{3-chloro-5-[(dimethylamino)methyl]phenyl}-2-(4-fluoro-3-methoxyphenyl)-1H-benzimidazol-1-yl]-N-isopropyl acetamide] came in with an IC50 of 141 nM. This IC50 lies about 56-fold higher than the previous one.
`CC(C)NC(=O)Cn1c(-c2ccc(F)c(Cl)c2)nc2cc(OCCCN3CCCCC3)ccc21` [Example A-12, 2-{2-(3-chloro-4-fluorophenyl)-5-[3-(piperidin-1-yl)propoxy]-1H-benzimidazol-1-yl}-N-isopropyl acetamide hydrochloride] yielded an IC50 of 7.6 nM.
`CC(C)NC(=O)Cn1c(-c2ccc(F)c(Cl)c2)nc2cc(OCCCN3CC4(COC4)C3)ccc21` [Example A-15, 2-{2-(3-chloro-4-fluorophenyl)-5-[3-(2-oxa-6-azaspiro[3.3]hept-6-yl)propoxy]-1H-benzimidazol-1-yl}-N-isopropyl acetamide] gave an IC50 of 3.8 nM.
Compound `CC(C)NC(=O)Cn1c(-c2ccc(F)c(Cl)c2)nc2cc(OCCCN3[C@@H]4CC[C@H]3COC4)ccc21` [Example A-16, 2-[2-(3-chloro-4-fluorophenyl)-5-{3-[(1R,5S)-3-oxa-8-azabicyclo[3.2.1]oct-8-yl]propoxy}-1H-benzimidazol-1-yl]-N-isopropyl acetamide] returned an IC50 of 1.7 nM.
`CC(C)NC(=O)Cn1c(-c2ccc(F)c(Cl)c2)nc2cc(OCCCCN3CCCCC3)ccc21` [Example A-17, 2-{2-(3-chloro-4-fluorophenyl)-5-[4-(piperidin-1-yl)butoxy]-1H-benzimidazol-1-yl}-N-isopropyl acetamide] registered an IC50 of 176 nM. Compared with the last compound, the IC50 is about 100-fold higher.
`COc1cccc(-c2nc3cc(OCCCN4CCOCC4)ccc3n2CC(=O)NC(C)C)n1` [Example A-18, N-isopropyl-2-{2-(6-methoxypyridin-2-yl)-5-[3-(morpholin-4-yl)propoxy]-1H-benzimidazol-1-yl}acetamide] had an IC50 of 83.6 nM.
Take `COc1cc(-c2nc3cc(N4CCCN(C)CC4)ccc3n2CC(=O)NC(C)(C)C)ccc1F` [Example A-19, N-tert-butyl-2-[2-(4-fluoro-3-methoxyphenyl)-5-(4-methyl-1,4-diazepan-1-yl)-1H-benzimidazol-1-yl]acetamide]: the IC50 is 3.4 nM.
To `COc1cc(-c2nc3cc(N4CCCN(C(C)C)CC4)ccc3n2CC(=O)NC(C)(C)C)ccc1F` [Example A-20, N-tert-butyl-2-[2-(4-fluoro-3-methoxyphenyl)-5-(4-isopropyl-1,4-diazepan-1-yl)-1H-benzimidazol-1-yl]acetamide] belongs 8.6 nM.
The compound `COc1cc(-c2nc3cc(N4CCC(N5CCCC5)CC4)ccc3n2CC(=O)NC(C)(C)C)ccc1F` [Example A-21, N-tert-butyl-2-{2-(4-fluoro-3-methoxyphenyl)-5-[4-(pyrrolidin-1-yl)piperidin-1-yl]-1H-benzimidazol-1-yl}acetamide] had an IC50 of 1.1 nM. Against the preceding compound, the IC50 is about 7.8-fold lower.
In turn, `CC(C)NC(=O)Cn1c(-c2ccc(F)c(Cl)c2)nc2cc(N3CCCN(C)CC3)ccc21` [Example A-22, 2-[2-(3-chloro-4-fluorophenyl)-5-(4-methyl-1,4-diazepan-1-yl)-1H-benzimidazol-1-yl]-N-isopropyl acetamide] showed an IC50 of 15.4 nM.
`CN1CCCN(c2ccc3c(c2)nc(-c2ccc(F)c(Cl)c2)n3CC(=O)NC(C)(C)C)CC1` [Example A-23, N-tert-butyl-2-[2-(3-chloro-4-fluorophenyl)-5-(4-methyl-1,4-diazepan-1-yl)-1H-benzimidazol-1-yl]acetamide]: the IC50 came out at 3.1 nM.
In the case of `CC(C)NC(=O)Cn1c(-c2cccc(Cl)c2)cc2cc(OCCCN3CCOCC3)ccc21` [Example B-2, 2-{2-(3-chlorophenyl)-5-[3-(morpholin-4-yl)propoxy]-1H-indol-1-yl}-N-isopropyl acetamide], the IC50 was determined as 6.4 nM. This IC50 lies about 2.1-fold higher than the previous one.
The value for `CC(C)NC(=O)Cn1c(-c2cccc(Cl)c2)cc2cc(OC3CCN(C4CC4)CC3)ccc21` [Example B-3, 2-{2-(3-chlorophenyl)-5-[(1-cyclopropylpiperidin-4-yl)oxy]-1H-indol-1-yl}-N-isopropyl acetamide] was 10.4 nM.
To `CC(C)NC(=O)Cn1c(-c2cccc(Cl)c2)cc2cc(OCCCN3CCC(O)CC3)ccc21` [Example B-6, 2-{2-(3-chlorophenyl)-5-[3-(4-hydroxypiperidin-1-yl)propoxy]-1H-indol-1-yl}-N-isopropyl acetamide] belongs 18.4 nM.
The compound `CC(C)NC(=O)Cn1c(-c2cccc(Cl)c2)cc2cc(OCCCN3CCCC(O)C3)ccc21` (centres unmarked) [Example B-7, 2-{2-(3-chlorophenyl)-5-[3-(3-hydroxypiperidin-1-yl)propoxy]-1H-indol-1-yl}-N-isopropyl acetamide] gave an IC50 of 73.4 nM. Against the preceding compound, the IC50 is about 4-fold higher.
For `CC(C)NC(=O)Cn1c(-c2cccc(Cl)c2)cc2cc(OCCCN3CCC(O)C3)ccc21` (centres unmarked) [Example B-8, 2-{2-(3-chlorophenyl)-5-[3-(3-hydroxypyrrolidin-1-yl)propoxy]-1H-indol-1-yl}-N-isopropyl acetamide], the IC50 amounted to 52.3 nM.
Compound `CC(C)NC(=O)Cn1c(-c2cccc(Cl)c2)cc2cc(OCCCN3CCC4(CC3)COC4)ccc21` [Example B-10, 2-{2-(3-chlorophenyl)-5-[3-(2-oxa-7-azaspiro[3.5]non-7-yl)propoxy]-1H-indol-1-yl}-N-isopropyl acetamide] had an IC50 of 20.2 nM.
Consider `COc1cc(-c2cc3cc(OCCCN4CCCCC4)ccc3n2CC(=O)NC(C)C)ccc1F` [Example B-11, 2-{2-(4-fluoro-3-methoxyphenyl)-5-[3-(piperidin-1-yl)propoxy]-1H-indol-1-yl}-N-isopropyl acetamide], for which the IC50 came to 52.1 nM.
As to `COc1cc(-c2cc3cc(OCCCN4CCC(O)CC4)ccc3n2CC(=O)NC(C)C)ccc1F` [Example B-12, 2-{2-(4-fluoro-3-methoxyphenyl)-5-[3-(4-hydroxypiperidin-1-yl)propoxy]-1H-indol-1-yl}-N-isopropyl acetamide], the IC50 was found to be 45.3 nM.
`COc1cc(-c2cc3cc(OCCCN4CCCC(O)C4)ccc3n2CC(=O)NC(C)C)ccc1F` (centres unmarked) [Example B-13, 2-{2-(4-fluoro-3-methoxyphenyl)-5-[3-(3-hydroxypiperidin-1-yl)propoxy]-1H-indol-1-yl}-N-isopropyl acetamide] registered an IC50 of 87.1 nM.
`COc1cc(-c2cc3cc(OCCCN4CCC(O)C4)ccc3n2CC(=O)NC(C)C)ccc1F` (centres unmarked) [Example B-14, 2-{2-(4-fluoro-3-methoxyphenyl)-5-[3-(3-hydroxypyrrolidin-1-yl)propoxy]-1H-indol-1-yl}-N-isopropyl acetamide] registered an IC50 of 87.2 nM.
